Measurements as given in ChEMBL document CHEMBL1201862, “PubChem BioAssay data set” (2004).
Active and inactive are the calls of the source.

Experiments:
[1] = molecular target: 26S proteasome non-ATPase regulatory subunit 14 (Homo sapiens, UniProt O00487); assay: inhibition of proteasome subunit RPN11 – biochemical, fluorescence polarization, uHTS hits, confirmation (AID 602368); type: functional
[2] = molecular target: 72 kDa type IV collagenase (Homo sapiens, UniProt P08253); assay: Dose Response validation of uHTS RPN11 inhibitor hits using a MMP-2 Fluorescence assay.; type: functional
Chain of 72 kDa type IV collagenase (P08253 whole entry): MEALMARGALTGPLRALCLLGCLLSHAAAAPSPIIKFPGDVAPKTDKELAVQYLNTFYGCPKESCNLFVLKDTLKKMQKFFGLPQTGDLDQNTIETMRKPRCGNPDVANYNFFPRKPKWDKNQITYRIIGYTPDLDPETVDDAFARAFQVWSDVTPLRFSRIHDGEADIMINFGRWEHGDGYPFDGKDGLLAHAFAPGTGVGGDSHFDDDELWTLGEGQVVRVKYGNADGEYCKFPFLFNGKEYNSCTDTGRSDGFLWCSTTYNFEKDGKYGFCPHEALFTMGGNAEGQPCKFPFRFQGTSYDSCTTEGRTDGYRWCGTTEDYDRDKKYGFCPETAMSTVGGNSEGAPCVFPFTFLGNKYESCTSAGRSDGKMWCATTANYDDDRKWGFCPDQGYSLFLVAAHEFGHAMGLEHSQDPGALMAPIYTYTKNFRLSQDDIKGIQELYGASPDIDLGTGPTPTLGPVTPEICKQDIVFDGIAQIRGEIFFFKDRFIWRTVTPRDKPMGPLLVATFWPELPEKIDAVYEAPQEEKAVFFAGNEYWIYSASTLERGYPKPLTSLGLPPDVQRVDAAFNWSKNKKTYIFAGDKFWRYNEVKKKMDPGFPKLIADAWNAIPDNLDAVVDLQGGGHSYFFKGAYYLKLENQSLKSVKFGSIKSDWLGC

[3] = molecular target: Prothrombin (Bos taurus, UniProt P00735); assay: thrombin protease inhibitors – biochemical, fluorescence polarization, uHTS hits, dose response (AID 602369); type: functional
[4] = system: P388/ADR; assay: cells; type: functional; conditions: Mus musculus
[5] = system: SN12K1; assay: cells; type: functional; conditions: Homo sapiens
[6] = system: P388; assay: cells; type: functional; conditions: Mus musculus
[7] = non-specific 3'UTR reporter inhibition in Clone20-Shn3RL – cell-based, Renilla luciferase, cherry-picked, counter-screen for Shn3 inhibitor project, dose response (AID 624133); type: functional
[8] = molecular target: Genome polyprotein (dengue virus type 2, UniProt P29990); assay: flavivirus cap methylation enzyme inhibition – biochemical, confirmation dose response, primary screen (AID 588689); type: functional
Chain of Genome polyprotein (P29990 2492-3391 limits assumed): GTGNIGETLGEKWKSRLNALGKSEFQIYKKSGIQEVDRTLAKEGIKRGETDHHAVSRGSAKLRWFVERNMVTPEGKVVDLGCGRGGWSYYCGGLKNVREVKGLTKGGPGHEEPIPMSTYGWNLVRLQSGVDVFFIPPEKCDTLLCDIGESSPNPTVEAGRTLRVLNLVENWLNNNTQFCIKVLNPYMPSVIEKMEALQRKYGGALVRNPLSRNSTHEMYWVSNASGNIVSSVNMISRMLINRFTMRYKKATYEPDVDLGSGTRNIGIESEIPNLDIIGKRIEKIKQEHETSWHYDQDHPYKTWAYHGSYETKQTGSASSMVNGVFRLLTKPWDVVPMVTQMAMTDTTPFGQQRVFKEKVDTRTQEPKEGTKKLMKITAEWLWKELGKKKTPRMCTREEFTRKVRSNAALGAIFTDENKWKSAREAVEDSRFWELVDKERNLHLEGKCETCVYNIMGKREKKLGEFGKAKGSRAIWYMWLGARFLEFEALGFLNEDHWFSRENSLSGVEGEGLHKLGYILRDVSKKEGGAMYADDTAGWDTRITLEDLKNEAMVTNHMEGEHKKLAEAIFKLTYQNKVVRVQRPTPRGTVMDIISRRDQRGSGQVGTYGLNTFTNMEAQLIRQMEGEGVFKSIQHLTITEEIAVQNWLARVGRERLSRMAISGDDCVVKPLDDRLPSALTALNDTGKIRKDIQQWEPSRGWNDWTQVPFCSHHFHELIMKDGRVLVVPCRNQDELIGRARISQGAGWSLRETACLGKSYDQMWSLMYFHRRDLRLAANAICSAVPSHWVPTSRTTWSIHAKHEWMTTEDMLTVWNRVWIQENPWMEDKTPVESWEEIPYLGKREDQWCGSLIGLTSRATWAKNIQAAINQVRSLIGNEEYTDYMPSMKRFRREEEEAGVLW

[9] = loss of viability in HepG2 cells – cell-based, CellTiter-Glo, cherry-picked, cytotoxicity control for Shn3 inhibitor project, dose response (AID 624134); type: functional
[10] = reduction of Shn3 3'UTR-driven luciferase in osteoblasts – cell-based, Clone20 osteoblasts, firefly luciferase, cherry-picked, dose response (AID 624132); type: functional;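 also: firefly luciferase luminescence from reporter carrying the Shn3 3'UTR in osteoblasts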
[11] = molecular target: T1, Ubiquitin-conjugating enzyme E2 N (Homo sapiens, UniProt P61088); type: functional
T1 sequence (P61088 whole entry): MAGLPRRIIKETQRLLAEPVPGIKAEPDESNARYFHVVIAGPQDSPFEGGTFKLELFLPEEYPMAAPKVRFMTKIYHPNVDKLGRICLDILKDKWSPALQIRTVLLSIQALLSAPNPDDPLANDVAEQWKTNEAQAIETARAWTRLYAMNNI

[12] = molecular target: T2, Replicative DNA helicase DnaB (Mycobacterium tuberculosis, UniProt P9WMR3); assay: DnaB intein splicing inhibitors, dose response, biochemical, cell-free fluorescence (AID 449749); type: functional
T2 sequence (P9WMR3 whole entry): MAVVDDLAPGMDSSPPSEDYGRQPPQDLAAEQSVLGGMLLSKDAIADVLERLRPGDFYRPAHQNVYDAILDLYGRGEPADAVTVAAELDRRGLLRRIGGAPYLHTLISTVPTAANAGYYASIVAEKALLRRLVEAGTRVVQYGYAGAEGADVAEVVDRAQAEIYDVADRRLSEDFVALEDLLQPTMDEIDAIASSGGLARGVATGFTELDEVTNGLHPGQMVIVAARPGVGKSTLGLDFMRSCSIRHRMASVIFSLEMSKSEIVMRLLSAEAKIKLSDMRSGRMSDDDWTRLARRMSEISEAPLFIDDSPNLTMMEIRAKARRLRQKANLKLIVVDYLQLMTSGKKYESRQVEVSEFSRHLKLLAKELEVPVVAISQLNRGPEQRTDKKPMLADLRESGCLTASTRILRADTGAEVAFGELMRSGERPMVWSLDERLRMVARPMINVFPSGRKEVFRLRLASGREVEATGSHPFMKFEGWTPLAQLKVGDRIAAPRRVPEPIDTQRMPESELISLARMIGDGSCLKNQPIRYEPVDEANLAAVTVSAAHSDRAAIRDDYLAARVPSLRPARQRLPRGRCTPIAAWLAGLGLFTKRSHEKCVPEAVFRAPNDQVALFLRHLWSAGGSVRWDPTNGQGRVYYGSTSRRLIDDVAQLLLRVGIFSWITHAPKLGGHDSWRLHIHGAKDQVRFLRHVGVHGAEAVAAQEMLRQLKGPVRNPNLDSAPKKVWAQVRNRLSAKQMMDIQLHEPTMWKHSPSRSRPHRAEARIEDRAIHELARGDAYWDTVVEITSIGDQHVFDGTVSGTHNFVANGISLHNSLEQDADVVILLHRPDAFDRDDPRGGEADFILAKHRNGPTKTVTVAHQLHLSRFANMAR

[13] = molecular target: T1, Ubiquitin-conjugating enzyme E2 N; type: functional; remark: listed apart in the source
[14] = molecular target: T3, Microphthalmia-associated transcription factor (Homo sapiens, UniProt O75030); assay: reducers of TRPM1 reporter luminescence, concentration series – cell-based, SK-MEL-5, cherry-picked, set 3, MITF inhibitor project, dose response (AID 493073); type: functional;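 also: SK-MEL-5 melanoma cells with luciferase driven by the MITF target TRPM1 promoter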
T3 sequence (O75030 whole entry): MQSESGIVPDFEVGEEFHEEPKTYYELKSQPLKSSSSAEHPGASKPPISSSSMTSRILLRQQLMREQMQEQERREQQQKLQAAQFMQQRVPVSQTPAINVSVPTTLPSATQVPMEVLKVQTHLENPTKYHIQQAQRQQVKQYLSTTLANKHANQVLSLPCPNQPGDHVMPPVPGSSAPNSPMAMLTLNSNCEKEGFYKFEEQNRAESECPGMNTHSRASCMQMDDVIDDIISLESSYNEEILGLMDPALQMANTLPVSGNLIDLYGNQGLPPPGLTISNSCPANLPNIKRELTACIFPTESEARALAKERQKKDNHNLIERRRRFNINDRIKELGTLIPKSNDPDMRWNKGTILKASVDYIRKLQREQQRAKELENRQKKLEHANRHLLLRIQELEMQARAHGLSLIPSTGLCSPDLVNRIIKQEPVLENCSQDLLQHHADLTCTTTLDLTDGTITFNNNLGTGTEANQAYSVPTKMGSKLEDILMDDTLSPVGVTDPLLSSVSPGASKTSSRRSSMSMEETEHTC

[15] = molecular target: T4, Protein RecA (Mycobacterium tuberculosis, UniProt P9WHJ3); assay: Fluorescence Cell-Free Homogeneous Dose Retest to Identify Inhibitors of RecA-Intein Splicing Activity. [Related pubchem assays (depositor defined):AID2097, AID2223, AID489010, AID492950]; type: functional
T4 sequence (P9WHJ3 whole entry): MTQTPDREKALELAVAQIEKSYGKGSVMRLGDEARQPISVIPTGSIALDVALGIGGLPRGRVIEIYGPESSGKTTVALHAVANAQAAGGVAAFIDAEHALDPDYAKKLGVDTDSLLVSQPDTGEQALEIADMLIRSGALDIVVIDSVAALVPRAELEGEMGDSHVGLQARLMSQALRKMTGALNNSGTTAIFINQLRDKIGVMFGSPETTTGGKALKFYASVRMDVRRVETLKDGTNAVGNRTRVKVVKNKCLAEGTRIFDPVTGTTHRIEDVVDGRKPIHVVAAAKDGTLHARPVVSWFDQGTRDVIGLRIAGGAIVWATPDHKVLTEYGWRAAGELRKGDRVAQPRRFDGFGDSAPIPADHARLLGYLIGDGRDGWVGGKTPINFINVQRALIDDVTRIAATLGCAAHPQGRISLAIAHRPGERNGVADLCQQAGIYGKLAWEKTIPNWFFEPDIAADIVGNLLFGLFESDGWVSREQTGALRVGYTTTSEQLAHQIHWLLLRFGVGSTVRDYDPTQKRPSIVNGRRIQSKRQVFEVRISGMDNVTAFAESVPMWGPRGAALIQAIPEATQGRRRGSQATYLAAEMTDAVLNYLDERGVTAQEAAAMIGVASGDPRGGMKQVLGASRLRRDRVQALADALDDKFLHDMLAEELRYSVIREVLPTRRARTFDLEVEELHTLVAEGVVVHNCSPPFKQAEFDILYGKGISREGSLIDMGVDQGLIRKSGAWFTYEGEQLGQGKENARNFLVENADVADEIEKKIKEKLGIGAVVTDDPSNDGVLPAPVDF

[16] = system: CHO; assay: CHO cell viability loss, potency – luminescence, cytotoxicity control for TLR9-MyD88 binding inhibitor project, dose response (AID 588339); type: functional, cell-based, hamster; conditions: Cricetulus griseus;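 also: CHO cells stably coexpressing TLR9 and MyD88 fusions from primary screen; compound exposure lasted 48 hours before viability readout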
[17] = molecular target: T5, Bcl-2-related protein A1 (Mus musculus, UniProt Q07440); type: functional;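 also: confirmatory dose–response counterscreen on Bfl-1, used to check hits from a UBC13 polyubiquitin inhibitor campaign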
T5 sequence (Q07440 whole entry): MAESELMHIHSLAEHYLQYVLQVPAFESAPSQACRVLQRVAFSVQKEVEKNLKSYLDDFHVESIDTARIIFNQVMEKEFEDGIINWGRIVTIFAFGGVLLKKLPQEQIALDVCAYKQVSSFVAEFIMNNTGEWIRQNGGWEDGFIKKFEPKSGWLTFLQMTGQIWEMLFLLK

[18] = molecular target: Beta Lactamase (Pseudomonas aeruginosa, UniProt Q932Y6); assay: BLA reporter interference, concentration series – BLA reporter cells, FRET fluorescence, artefact control for TLR9-MyD88 binding inhibitor project, dose response (AID 588341); type: cell-based;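 also: cell based assay in CHO-K1 cells stably expressing beta-lactamase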
Chain of Beta Lactamase (Q932Y6 whole entry): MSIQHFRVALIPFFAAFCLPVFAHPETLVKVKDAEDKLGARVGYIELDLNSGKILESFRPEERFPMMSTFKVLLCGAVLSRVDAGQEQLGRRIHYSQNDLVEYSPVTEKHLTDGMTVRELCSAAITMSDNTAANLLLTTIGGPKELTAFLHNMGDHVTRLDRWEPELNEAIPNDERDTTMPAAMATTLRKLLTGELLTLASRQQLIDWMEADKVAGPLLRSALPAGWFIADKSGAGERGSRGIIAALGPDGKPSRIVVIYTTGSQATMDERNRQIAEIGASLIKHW

[19] = Luminescence Cell-Based Dose Retest to Confirm Inhibitors of Cancer Stem Cells. [Related pubchem assays (depositor defined):AID2717, AID2721]; type: functional; conditions: Homo sapiens
[20] = system: HeLa; assay: ATP-based viability loss in HeLa cells – cell-based, CellTiter-Glo luminescence, cherry-pick samples, cytotoxicity control for MITF activator project, dose response (AID 540259); type: functional; conditions: Homo sapiens

Chain of 26S proteasome non-ATPase regulatory subunit 14 (O00487 whole entry): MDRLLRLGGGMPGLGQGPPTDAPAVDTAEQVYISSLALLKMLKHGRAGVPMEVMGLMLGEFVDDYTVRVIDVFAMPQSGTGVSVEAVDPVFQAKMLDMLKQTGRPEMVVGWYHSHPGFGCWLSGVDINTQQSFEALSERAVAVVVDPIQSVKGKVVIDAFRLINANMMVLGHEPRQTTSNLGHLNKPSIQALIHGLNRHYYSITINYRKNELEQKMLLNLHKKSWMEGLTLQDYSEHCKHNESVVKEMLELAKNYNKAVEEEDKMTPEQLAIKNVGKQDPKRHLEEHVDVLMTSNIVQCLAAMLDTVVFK

COc1ccccc1Cc1c(-c2cccc(Cl)c2)nc2ccc(Br)cn12
IC50 [1]: 14.2 µM (active) | IC50 [2]: > 100 µM (inactive) | IC50 [3]: 8.29 µM (active)

CC(C)=CCC(OC(=O)C=C(C)C)c1cc(O)c2c(c1O)C(=O)C=CC2=O (stereo unspecified)
GI50 [4]: 0.023 µM (active) | GI50 [5]: 1.2 µM (inactive) | GI50 [6]: 0.0296 µM (active)

COc1cc(C2c3cc4c(cc3[C@@H](Nc3ccc([N+](=O)[O-])cc3)C3COC(=O)[C@H]23)OCO4)cc(OC)c1O (stereo partly specified)
GI50 [4]: 0.324 µM (active) | GI50 [5]: 0.0427 µM (active) | GI50 [6]: < 0.01 µM (active)

CS(=O)(=O)c1ncc(Cl)c(C(=O)Nc2ccc(N3CCOCC3)cc2)n1
AC50 [7]: 12.9 µM (active) | IC50 [8]: > 100 µM (active) | AC50 [9]: 24 µM (active) | AC50 [10]: 1.21 µM (active) | IC50 [11]: 14.9 µM (active) | AC50 [12]: 4.51 µM (active) | IC50 [13]: > 20 µM (inactive) | AC50 [14]: 22.8 µM (active) | EC50 [15]: 12.8 µM (active) | IC50 [16]: 4.79 µM (active) | IC50 [17]: > 20 µM (inactive) | IC50 [18]: 10.2 µM (inactive) | AC50 [19]: 5.14 µM (active)

O=c1nc2sc3ccccc3n2c(=O)n1-c1ccc(Cl)cc1
AC50 [20]: 43.9 µM (active)

COc1cc(/N=N\c2ccc(OC)c(S(=O)(=O)O)c2)c(C)cc1/N=N\c1ccc(/C=C/c2ccc(/N=[N+](/[O-])c3ccc(/C=C/c4ccc(/N=N/c5cc(C)c(/N=N\c6ccc(OC)c(S(=O)(=O)O)c6)cc5OC)cc4S(=O)(=O)O)c(S(=O)(=O)O)c3)cc2S(=O)(=O)O)c(S(=O)(=O)O)c1
GI50 [5]: > 100 µM (inactive) | GI50 [6]: > 100 µM (inactive)

Cc1ccc(C(=O)Nc2cccc(O)c2)cc1S(=O)(=O)N1CCCCCC1
AC50 [20]: 321 µM (active)

C/C(=N\Nc1ccc([N+](=O)[O-])cc1)c1cc2ccccc2o1
IC50 [1]: 1.82 µM (active) | IC50 [2]: > 100 µM (inactive) | IC50 [3]: 1.62 µM (active) | IC50 [16]: 49.7 µM (inactive) | IC50 [18]: 3 µM (active)
